Laboratory results as given in patent publication US5475028A (Zaidan Hojin Seisan Kaihatsu Kagaku Kenkyusho, priority 1992, dated 1995).

Assays:
[1] = system: Liver disorder (hepatopathy) in mice; experiment: Anti-hepatitis test: liver disorder (hepatopathy) in mice, carbon tetrachloride; format: in vivo, dyy-strain male mice; conditions: carbon tetrachloride i.p., test substance 1.0 mg/ml i.p. 3 h later, blood at 24 h, Table 1, * p < 0.05
Protocol: (1) Liver disorder (hepatopathy) in mice A group of 8 dyy-strain male mice (weighing 23 to 25 g), kept fasting from the previous day was treated by intraperitoneal injection of a 25% solution of carbon tetrachloride in olive oil at a dose of […] and thereafter allowed free access to food. Three hours after the administration of carbon tetrachloride, the mice were given a 1.0 mg/ml concentrated suspension of the test substance, as prepared in conjunction with powdered gum arabic, by intra-peritoneal injection at a dose of 0.1 ml/body weight. Twenty four hours after the administration of carbon tetrachloride, blood samples were drawn from the mice under anesthesia with ether through the abdominal descending aorta.

[2] = system: Isolated liver cells of rats; experiment: Anti-hepatitis test: disorder of the isolated liver cells, carbon tetrachloride; format: cell-based; conditions: isolated rat liver cells, carbon tetrachloride vapor; test substance 0.1 mg/ml solution, 1 ml added to 2 ml; supernatant; Table 2; n = 8; * p < 0.05
Protocol: (2) Disorder of the isolated liver cells a. Carbon tetrachloride Isolated liver cells of rats were prepared by means of […] collagenase irrigation method, whereby a liver cell suspension was prepared to a concentration of 6×10^8 liver cells/mi. Into 2 ml of the suspension in an Erlenmeyer flask of a 10 ml capacity was put a test tube of about 0.5 capacity containing carbon tetrachloride to saturate the reaction system with carbon tetrachloride vapor, and after the flask was tightly stoppered, preincubation was carried out at 37° C. for 5 min. One ml of a test substance solution prepared at a concentration of 0.1 mg/ml Hunk's solution was added to the suspension of liver cells, while 1 ml of Hunk's solution was added to the control.

[3] = system: Isolated liver cells of rats; experiment: Anti-hepatitis test: disorder of the isolated liver cells, antibody against rat liver cell membranes; format: cell-based; conditions: antiserum against rat liver cell membranes, test substance 0.1 mg/ml solution, 1 ml added to 2 ml, supernatant, Table 3, n = 8, * p < 0.05
Protocol: (2) Disorder of the isolated liver cells
b. Antibody against rat liver cell membranes
Isolated liver cells of rats were prepared by means of Segren's collagenase irrigation method, whereby a liver cell suspension was prepared at a concentration of 6×10^8 liver cells/mi. An Erlenmeyer flask of a 10 ml capacity in which 2 ml of the suspension had been placed was saturated with 95% oxygen, and after the flask was tightly stoppered, preincubation was carried out at 37° C. for 5 min. One ml of a test substance solution prepared at a concentration of 0.1 mg/ml Hunk's solution was added to the liver cell suspension, while 1 ml of the Hunk's solution was added to the control, followed by incubation for another 5 min, and antiserum against rat liver cell membranes (a 50-fold diluted serum) was added. A specifically determined volume of the reaction solution was pipetted out 0 and 30 min after the initiation of reaction, respectively, and immediately centrifuged under 500 g for 30 seconds, and the ALT, AST and LDH as leached out into the supernatant liquid were determined for activity by the Lippie method.

[4] = system: Stomach injury with hydrochloric acid/ethanol; experiment: Anti-ulcer test: stomach injury with hydrochloric acid/ethanol; format: in vivo, male rats of KBL Wistar strain; conditions: rats; for Suppression rate: 30 min before hydrochloric acid/ethanol, ulcer length
Protocol: (1) Stomach injury with hydrochloric acid/ethanol:
Rats weighing 193 to 228 g were fasted with free access to water for 24 hours before being used in the experiment. The rats were divided into groups each consisting of 10 heads in such a way as their mean body weights were nearly uniform, treated through oral administration of hydrochloric acid/ethanol (0.15 mole hydrochloric acid solution in 80% ethanol) at a dose of 5 ml/kg body weight and sacrificed through cervical vertebrae dislocation 1 hour after administration. The stomachs were removed and treated with formalin, and individual ulcers formed in the glandula portion of the stomach were measured in length (mm), with the measured ulcer lengths being summed for each rat. The test substance was suspended in a 0.5% aqueous solution of sodium carboxymethylcellulose, and the suspension was given to the test group orally at a dose of 10 ml/kg body weight 30 min before administration of hydrochloric acid/ethanol, whereas the vehicle alone was applied to the control group.

[5] = system: Stomach injury through water-immersion constraint stress; experiment: Anti-ulcer test: stomach injury through water-immersion constraint stress; format: in vivo, male rats of KBL Wistar strain; conditions: rats; for Suppression rate: 30 min before water-soaking constraint, 7 h, ulcer length, * p < 0.05
Protocol: (2) Stomach injury through water-immersion constraint stress
Rats weighing 183 to 235 g were fasted with free access to water for 24 hours before being used in the experiment. The rats were divided into groups each consisting of 10 heads in such a way as their mean body weights were nearly uniform, stress-loaded by soaking the animals as placed in a stress cage of Univ. of Tokyo type in a water tank at 23° C. up to the xiphoid and sacrificed through cervical vertebrae dislocation 7 hours later. The stomachs were removed and treated with formalin, and individual ulcers formed in the glandula portion of the stomach were measured in length (mm), with the measured ulcer lengths being summed for each rat. The test substance was suspended in a 0.5% aqueous solution of sodium carboxymethylcellulose, and the suspension was given to the test group orally at a dose of 10 ml/kg body weight 30 min before the water-soaking constraint, whereas the vehicle alone was applied to the control group.

mice = experiment: Acute toxicity test; format: in vivo, Male, SLC:ICR (SPE) mice; conditions: oral
Protocol: Male, SLC:ICR (SPE) mice weighing 20 g, divided into groups each consisting of 5 heads, were treated by oral administration of the test compound suspended in gum arabic at doses of 1,000 mg/kg, 1,500 mg/kg and 2,500 mg/kg test compound, followed by observation for any abnormalities.

[6] = Overall anti-hepatitis, liver-function improving and anti-ulcer activities (summary of tests)

N[C@@H](CCC(=O)N[C@@H](CS)C(=O)NCC(=O)O)C(=O)O [Glutathione]
ALT, mean ± S.D. [1]: 19423.1 ± 1042.3 IU | AST, mean ± S.D. [1]: 9643.6 ± 3874.3 IU | LDH, mean ± S.D. [1]: 32392 ± 7906 IU | ALT, mean ± S.D. [2]: 1176.1 ± 123.7 IU | AST, mean ± S.D. [2]: 321.7 ± 94.4 IU | ALT, mean ± S.D. [3]: 2257.8 ± 581.6 IU | AST, mean ± S.D. [3]: 1759.4 ± 394.3 IU | LDH, mean ± S.D. [3]: 2541.1 ± 563.4 IU

CC(S)C(=O)NCC(=O)O (centres unmarked) [Thiopronine]
ALT, mean ± S.D. [1]: 4941.2 ± 1537.7 IU | AST, mean ± S.D. [1]: 4884.5 ± 1097.5 IU | LDH, mean ± S.D. [1]: 26789 ± 9753 IU | ALT, mean ± S.D. [2]: 1426.9 ± 199.5 IU | AST, mean ± S.D. [2]: 956.8 ± 219.5 IU | ALT, mean ± S.D. [3]: 1826.5 ± 479.5 IU | AST, mean ± S.D. [3]: 1623.7 ± 432.8 IU | LDH, mean ± S.D. [3]: 2583.7 ± 634.1 IU

CC1(C)[C@@H](O[C@H]2O[C@H](C(=O)O)[C@@H](O)[C@H](O)[C@H]2O[C@@H]2O[C@H](C(=O)O)[C@@H](O)[C@H](O)[C@H]2O)CC[C@]2(C)[C@H]3C(=O)C=C4[C@@H]5C[C@@](C)(C(=O)O)CC[C@]5(C)CC[C@@]4(C)[C@]3(C)CC[C@@H]12 [Glycyrrhizin]
ALT, mean ± S.D. [1]: 8339.3 ± 2420.1 IU | AST, mean ± S.D. [1]: 8949.6 ± 4530.0 IU | LDH, mean ± S.D. [1]: 26457 ± 11086 IU | ALT, mean ± S.D. [2]: 1089.7 ± 210.2 IU | AST, mean ± S.D. [2]: 267.8 ± 78.1 IU | ALT, mean ± S.D. [3]: 1764.8 ± 437.1 IU | AST, mean ± S.D. [3]: 1358.4 ± 324.1 IU | LDH, mean ± S.D. [3]: 2163.1 ± 562.7 IU

Zinc-[bis(2-aminoethanesulfonic acid).bis(sodium 2-aminoethanesulfonate)] [FTZ]
ALT, mean ± S.D. [1]: 4265.7 ± 1347.6 IU | AST, mean ± S.D. [1]: 3215.8 ± 967.7 IU | LDH, mean ± S.D. [1]: 15865 ± 5300.8 IU | ALT, mean ± S.D. [2]: 1107.1 ± 168.8 IU | AST, mean ± S.D. [2]: 345.7 ± 72.8 IU | ALT, mean ± S.D. [3]: 1429.5 ± 327.8 IU | AST, mean ± S.D. [3]: 1025.8 ± 268.4 IU | LDH, mean ± S.D. [3]: 1875.3 ± 437.1 IU | Suppression rate ([4]; 50 mg/kg oral): 32.1% | Suppression rate ([4]; 100 mg/kg oral, * p < 0.01): 53.5% | Suppression rate ([4]; 200 mg/kg oral, * p < 0.01): 74.9% | UD50 ([4]; oral, hydrochloric acid/ethanol, 95% C.L. 83.4~94.3, 60 min): 88.7 mg/kg | Suppression rate ([5]; 50 mg/kg oral): 26.4% | Suppression rate ([5]; 100 mg/kg oral): 56.1% | Suppression rate ([5]; 200 mg/kg oral): 64.5% | UD50 ([5]; oral, water-immersion constraint stress, 95% C.L. 97.9~113, 420 min): 105 mg/kg | LD50 (mice): > 2,500 mg/kg | deaths (mice; doses up to 2,500 mg/kg): did not cause any animal to die | anti-hepatitis, liver-function improving and anti-ulcer activities [6]: exhibits anti-hepatitis, liver-function improving and anti-ulcer activities | suppression against increases in activities of ALT, AST and LDH ([6]; Tables 1 to 3, as compared with the control compounds currently in use): significantly enhanced suppression
